Laboratory results from US20230399287A1, “NOVEL COMPOUNDS” (Sitryx Therapeutics Limited, priority 2020, published 2023).

How the values were obtained:
IL-6 = assay: THP-1 AlphaLISA IL-6 cytokine assay; format: cell-based; settings: Homo sapiens, THP-1, differentiated THP-1 cells, LPS 24 hr then Nigericin 1 hour
Procedure: (§1) Measuring Inhibitory Effects on IL-1V and IL-6 Cytokine Output from THP-1s
(§2) The cytokine inhibition profiles of compounds of formula (I) were determined in a differentiated THP-1 cell assay. All assays were performed in RPMI-1640 growth medium (Gibco), supplemented with 10% fetal bovine serum (FBS; Gibco), 1% penicillin-streptomycin and 1% sodium pyruvate unless specified otherwise. The IL-1β and IL-6 cytokine inhibition assays were run in a background of differentiated THP-1 cells as described below. All reagents described were from Sigma-Aldrich unless specified otherwise. Compounds were prepared as 10 mM DMSO stocks.
(§3) THP-1 cells were expanded as a suspension up to 80% confluence in appropriate growth medium. Cells were harvested, suspended, and treated with an appropriate concentration of phorbol 12-myristate 13-acetate (PMA) over a 72 hr period (37° C./5% CO2).
(§4) Following 72 hrs of THP-1 cell incubation, cellular medium was removed and replaced with fresh growth media containing 1% of FBS. Working concentrations of compounds were prepared separately in 10% FBS treated growth medium and pre-incubated with the cells for 30 minutes (37° C./5% CO2). Following the 30 minute compound pre-incubation, THP-1s were treated with an appropriate concentration of LPS and the THP-1s were subsequently incubated for a 24 hr period (37° C./5% CO2). An appropriate final concentration of Nigericin was then dispensed into the THP-1 plates and incubated for 1 hour (37° C./5% CO2) before THP-1 supernatants were harvested and collected in separate polypropylene 96-well holding plates.
(§5) Reagents from each of the IL-1β and IL-6 commercial kits (Perkin Elmer) were prepared and run according to the manufacturer's instructions. Subsequently, fluorescence signal detection in a microplate reader was measured (EnVision® Multilabel Reader, Perkin Elmer).
(§6) Percentage inhibition was calculated per cytokine by normalising the sample data to the high and low controls used within each plate (+/−LPS respectively). Percentage inhibition was then plotted against compound concentration and the 50% inhibitory concentration ([…]) was determined from the resultant concentration-response curve.

hepatocytes [1] = assay: Hepatocyte stability assay (human); format: in vitro ADME; settings: 10 μM compound, 60 min
Excerpt: (§7) Defrosted cryo-preserved hepatocytes (viability>70%) were used to determine the metabolic stability of a compound via calculation of intrinsic clearance (Clint; a measure of the removal of a compound from the liver in the absence of blood flow and cell binding). Clearance data are particularly important for in vitro work as they can be used in combination with in vivo data to predict the half-life and oral bioavailability of a drug.
(§8) The metabolic stability in hepatocytes assay involved a time-dependent reaction using both positive and negative controls. The cells must be pre-incubated at 37° C. then spiked with test compound (and positive control); samples taken at pre-determined time intervals were analysed to monitor the change in concentration of the initial drug compound over 60 minutes. A buffer incubation reaction (with no hepatocytes present) acted as a negative control and two cocktail solutions, containing compounds with known high and low clearance values (verapamil/7-hydroxycoumarin and propranolol/diltiazem), acted as positive controls. • 1. The assay was run with a cell concentration of 0.5×10^6 cells/mL in Leibovitz buffer. • 2. All compounds and controls were run in duplicate. • 3. Compound concentration was 10 μM. • 4. All compounds and controls were incubated with both cells and buffer to show turnover is due to hepatic metabolism. • 5. All wells on the incubation plate had 326.7 μL of either cells or buffer added. • 6. Prior to assay, cell and buffer-only incubation plates were preincubated for 10 mins at 37° C. • 7. The assay was initiated by adding compounds, 3.3 μL of 1 mM in 10% DMSO-90% Buffer; final DMSO concentration is 0.1%. • 8. Samples were taken at regular timepoints (0, 5, 10, 20, 40, 60 min) until 60 mins. • 9. Sample volume was 40 μL and added to 160 μL of crash solvent (acetonitrile with internal standard) and stored on ice. • 10. At the end of the assay, the crash plates were centrifuged at 3500 rpm for 20 mins at 4° C. • 11. 80 μL of clear supernatant was removed and mixed with 80 μL of deionised water before being analysed by LC-MS/MS.
(§9) Raw LC-MS/MS data were exported to, and analysed in, Microsoft Excel for determination of intrinsic clearance. The percentage remaining of a compound was monitored using the peak area of the initial concentration as 100%. Intrinsic clearance and half-life values were calculated using a graph of the natural log of percentage remaining versus the time of reaction in minutes. Half-life (min) and intrinsic clearance (Clint in μL min^−1 10^−6 cells) values were calculated using the gradient of the graph (the elimination rate constant, k) and Equations 1 and 2.

[2] = Hepatocyte stability assay (human); format: in vitro ADME; settings: human, cryopreserved hepatocytes, 10 μM compound, 60 min, read-out: T½
Excerpt: as §7, §8, §9

IL-1β = assay: THP-1 AlphaLISA IL-1β cytokine assay; format: cell-based; settings: Homo sapiens, THP-1, differentiated THP-1 cells, LPS 24 hr then Nigericin 1 hour
Procedure: as §1, §2, §3, §4, §5, §6

hepatocytes [3] = assay: Hepatocyte stability assay (mouse); format: in vitro ADME; settings: 10 μM compound, 60 min
Excerpt: as §7, §8, §9

[4] = Hepatocyte stability assay (mouse); format: in vitro ADME; settings: mouse, cryopreserved hepatocytes, 10 μM compound, 60 min, read-out: T½
Excerpt: as §7, §8, §9

Structure (SMILES) | IC50 (IL-6) | Clint (hepatocytes [1]) | half-life at 10 μM [2] | IC50 (IL-1β) | Clint (hepatocytes [3]) | half-life at 10 μM [4]
C=C(CC(=O)O[C@H](c1ccc(C(F)(F)F)cc1)C(F)(F)F)C(=O)O [Example 34, (R)-2-methylene-4-oxo-4-(2,2,2-trifluoro-1-(4-(trifluoromethyl)phenyl)ethoxy)butanoic acid] | > 31.6 µM | 26 μL min^−1 10^−6 cells | 0.867 h | 12.2 µM | 48 μL min^−1 10^−6 cells | 0.433 h
C=C(CC(=O)OC1(c2ccc(C(F)(F)F)cc2)CC2(CCC2)C1)C(=O)O [Example 35, 2-methylene-4-oxo-4-((2-(4-(trifluoromethyl)phenyl)spiro[3.3]heptan-2-yl)oxy)butanoic acid] | > 31.6 µM | 14 μL min^−1 10^−6 cells | 1.43 h | 8.8 µM | 73 μL min^−1 10^−6 cells | 0.5 h
C=C(C(=O)O)C1(C(=O)OC2(c3ccc(C(F)(F)F)cc3)CCC2)CC1 [Example 39, 2-(1-((1-(4-(trifluoromethyl)phenyl)cyclobutoxy)carbonyl)cyclopropyl)acrylic acid] | > 100 µM | 18 μL min^−1 10^−6 cells | 1.08 h | 1.5 µM | 45 μL min^−1 10^−6 cells | 0.8 h
C=C(CC(=O)O[C@]1(c2ccc(C(F)(F)F)cc2)C[C@H](C#N)C1)C(=O)O [Example 41, 4-((cis)-3-cyano-1-(4-(trifluoromethyl)phenyl)cyclobutoxy)-2-methylene-4-oxobutanoic acid] | > 31.6 µM | <3 μL min^−1 10^−6 cells | > 7.67 h | 2.1 µM | 8 μL min^−1 10^−6 cells | 4.87 h
C=C(CC(=O)O[C@]1(c2ccc(C(F)(F)F)cc2)C[C@H](OC)C1)C(=O)O [Example 42, 4-((cis)-3-methoxy-1-(4-(trifluoromethyl)phenyl)cyclobutoxy)-2-methylene-4-oxobutanoic acid] | > 31.6 µM | 4 μL min^−1 10^−6 cells | 7.47 h | 17.1 µM | <3 μL min^−1 10^−6 cells | > 7.67 h
C=C(CC(=O)O[C@]1(c2ccc(C(F)(F)F)cc2)C[C@H](C)C1)C(=O)O [Example 45, (cis)-4-(3-methyl-1-(4-(trifluoromethyl)phenyl)cyclobutoxy)-2-methylene-4-oxobutanoic acid] | > 100 µM | <3 μL min^−1 10^−6 cells | > 7.67 h | 3.4 µM | 8 μL min^−1 10^−6 cells | 2.6 h
C=C(CC(=O)OC1(c2ccc(C(F)(F)F)cn2)COC1)C(=O)O [Example 46, 2-methylene-4-oxo-4-(3-(5-(trifluoromethyl)pyridin-2-yl)oxetan-3-yloxy)butanoic acid] | > 31.6 µM | <3 μL min^−1 10^−6 cells | > 7.67 h | 4.1 µM | <3 μL min^−1 10^−6 cells | > 7.67 h
C=C(CC(=O)OC1(c2ccc(C(F)(F)F)cc2)CCOCC1)C(=O)O [Example 47, 2-methylene-4-oxo-4-((4-(4-(trifluoromethyl)phenyl)tetrahydro-2H-pyran-4-yl)oxy)butanoic acid] | > 100 µM | <3 μL min^−1 10^−6 cells | > 7.67 h | 6.7 µM | <3 μL min^−1 10^−6 cells | > 7.67 h
C=C(CC(=O)OC1(c2ccc(C(F)(F)F)cc2)CS(=O)(=O)C1)C(=O)O [Example 49, 4-((1,1-dioxido-3-(4-(trifluoromethyl)phenyl)thietan-3-yl)oxy)-2-methylene-4-oxobutanoic acid] | > 100 µM | 91 μL min^−1 10^−6 cells | 0.25 h | 5 µM | 68 μL min^−1 10^−6 cells | 0.317 h
C=C(CC(=O)OC1(c2ccc(Br)cn2)CCC1)C(=O)O [Example 50, 4-(1-(5-bromopyridin-2-yl)cyclobutoxy)-2-methylene-4-oxobutanoic acid] | > 100 µM | <3 μL min^−1 10^−6 cells | > 7.67 h | 1.5 µM | 4 μL min^−1 10^−6 cells | 7 h
C=C(CC(=O)OC1(c2ccc(Cl)cn2)CCC1)C(=O)O [Example 51, 4-(1-(5-chloropyridin-2-yl)cyclobutoxy)-2-methylene-4-oxobutanoic acid] | > 31.6 µM | <3 μL min^−1 10^−6 cells | > 7.67 h | 6.4 µM | <3 μL min^−1 10^−6 cells | > 7.67 h
C=C(CC(=O)OC1(c2ncc(C(F)(F)F)cn2)CCC1)C(=O)O [Example 52, 2-methylene-4-oxo-4-(1-(5-(trifluoromethyl)pyrimidin-2-yl)cyclobutoxy)butanoic acid] | > 100 µM | <3 μL min^−1 10^−6 cells | > 7.67 h | 11.7 µM | 5 μL min^−1 10^−6 cells | 5.12 h
C=C(CC(=O)OC(C)(C)c1ccc(C(F)(F)F)cn1)C(=O)O [Example 57, 2-methylene-4-oxo-4-((2-(5-(trifluoromethyl)pyridin-2-yl)propan-2-yl)oxy)butanoic acid] | > 31.6 µM | <3 μL min^−1 10^−6 cells | > 7.67 h | 6.6 µM | 10 μL min^−1 10^−6 cells | 2.52 h
C=C(C(=O)O)C(C)(C)C(=O)OC1(c2ccc(C(F)(F)F)cn2)CCC1 [Example 59, 3,3-dimethyl-2-methylene-4-oxo-4-(1-(5-(trifluoromethyl)pyridin-2-yl)cyclobutoxy)butanoic acid] | > 31.6 µM | 11 μL min^−1 10^−6 cells | 2.3 h | 2.9 µM | <3 μL min^−1 10^−6 cells | > 7.67 h
C=C(CC(=O)OC1(c2ccc(C(F)(F)F)cc2)CC2(CC2)C1)C(=O)O [Example 61, 2-methylene-4-oxo-4-((5-(4-(trifluoromethyl)phenyl)spiro[2.3]hexan-5-yl)oxy)butanoic acid] | > 100 µM | 6 μL min^−1 10^−6 cells | 3.58 h | 5.5 µM | 21 μL min^−1 10^−6 cells | 1.72 h
